Test systems include NCI-H522 lung; SK-OV-3 ovarian; NCI-H23 lung; IGROV1 ovarian; MDA-MB-435; HCC-2998 colon; HL-60(TB) leukemia; RXF 393 renal; SNB-75 CNS; HOP-62 NSCLC.
What all share (experiment): growth of human tumour cells (NCI), 48 h

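Grown in 96-well plates, cells were treated for 48 hours with each compound at five concentrations. Insufficient inhibition: endpoint recorded as highest concentration tested. TGI is the concentration that stops growth completely.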 Where only a bound is given, the exact number is not on record here.

`CC(C)OP(=O)(OC(C)C)C(C(C)C)N(C)/C(N)=N\C1=NC(C(F)(F)F)(C(F)(F)F)N=C(C(C(F)(F)F)C(F)(F)F)O1` (stereo not drawn): the TGI with NCI-H522 lung is 3.09 µM; in the test on SK-OV-3 ovarian, 19.8 µM; in the test with NCI-H23 lung it was 14.6 µM; in the test on IGROV1 ovarian it was 5.77 µM; in the test on MDA-MB-435 it was 3.78 µM; in the test on HCC-2998 colon, 19.5 µM. The TGI with HL-60(TB) leukemia came out at 4.16 µM; in the test with RXF 393 renal, 4.08 µM; with SNB-75 CNS, 11.9 µM; in the test with HOP-62 NSCLC, 18 µM.

With `COc1ccccc1C1CC(=O)CC(c2ccccc2OC)C12C(=O)NC(=S)NC2=O` (stereo not drawn), the TGI with NCI-H522 lung is > 100 µM; in the test on NCI-H23 lung, > 100 µM; in the test with IGROV1 ovarian, > 100 µM; in the test with MDA-MB-435, 94.3 µM; with HCC-2998 colon, > 100 µM; in the test with HL-60(TB) leukemia it was 69.5 µM. The TGI with RXF 393 renal, in the test with SNB-75 CNS and in the test on HOP-62 NSCLC was > 100 µM each time.

With `COC(=O)[C@H](Cc1ccccc1)NC(=O)NCCN(CCNC(=O)N[C@@H](Cc1ccccc1)C(=O)OC)C(=O)N[C@@H](Cc1ccccc1)C(=O)OC`, the TGI with NCI-H522 lung is 29.6 µM; in the test with SK-OV-3 ovarian, > 60.8 µM; with NCI-H23 lung, 36.1 µM; in the test with MDA-MB-435, 45 µM; in the test on HCC-2998 colon, 34.8 µM; in the test with RXF 393 renal, 31.9 µM. Further, the TGI in the test on SNB-75 CNS was determined as 35.9 µM; in the test with HOP-62 NSCLC it was 39.8 µM.

On to `CC1C2CC(CC(=O)N2)C1(C)C` (stereo not drawn), for which the TGI with NCI-H522 lung, in the test on SK-OV-3 ovarian, in the test on NCI-H23 lung, in the test on IGROV1 ovarian, in the test with MDA-MB-435 and in the test with HCC-2998 colon was > 100 µM throughout. Besides, the TGI with HL-60(TB) leukemia, in the test with RXF 393 renal, with SNB-75 CNS and in the test on HOP-62 NSCLC was > 100 µM throughout.

In the case of `NC(=O)C(Nc1c(Cl)cccc1Cl)c1cc2cc(Br)ccc2nc1Cl` (stereo not drawn), the TGI in the test on NCI-H522 lung is > 100 µM; with SK-OV-3 ovarian it was > 100 µM; with NCI-H23 lung, > 100 µM; with IGROV1 ovarian, > 100 µM; with MDA-MB-435 it was 49.9 µM; with HCC-2998 colon, > 100 µM. Also, the TGI in the test with HL-60(TB) leukemia, in the test with RXF 393 renal, in the test on SNB-75 CNS and in the test on HOP-62 NSCLC was > 100 µM each time.

Regarding `COc1ccc(/C=C2/C(C)=NN(c3cccc(Cl)c3)/C2=N/c2nc3ccccc3s2)cc1`, the TGI with NCI-H522 lung was 35.2 µM; in the test on SK-OV-3 ovarian, 63.7 µM; in the test on NCI-H23 lung, 34.6 µM; with IGROV1 ovarian, 46.7 µM; in the test with MDA-MB-435 it was > 100 µM; with HCC-2998 colon it was 33.2 µM. The TGI in the test on HL-60(TB) leukemia turned out to be 51.4 µM; in the test on RXF 393 renal, 26.8 µM; with SNB-75 CNS it was 86.6 µM; in the test with HOP-62 NSCLC, 47.2 µM.

With `COc1cc(OCc2ccc3nc(-c4ccccc4)c(N)nc3c2)cc(OC)c1OC`, the TGI in the test on NCI-H522 lung was 37.7 µM; with IGROV1 ovarian, 55.9 µM; with MDA-MB-435, 51.2 µM; in the test on HCC-2998 colon, > 100 µM; in the test on HL-60(TB) leukemia, 32.4 µM; with RXF 393 renal, 77 µM. Moreover, the TGI in the test with SNB-75 CNS is 59.7 µM.

As for `CCc1nnc(CC)n1NCCCC(=O)O`, the TGI in the test on NCI-H522 lung, in the test on SK-OV-3 ovarian, with NCI-H23 lung, in the test on IGROV1 ovarian, in the test on MDA-MB-435 and in the test on HCC-2998 colon was > 100 µM in each case. For the same compound, the TGI in the test with RXF 393 renal, in the test on SNB-75 CNS and in the test with HOP-62 NSCLC was > 100 µM throughout.

Turning to `CSC1=N[C@H](c2ccccc2)CS1`, the TGI in the test with NCI-H23 lung, in the test on IGROV1 ovarian, in the test on MDA-MB-435, in the test with HCC-2998 colon, in the test with SNB-75 CNS and with HOP-62 NSCLC was > 100 µM in each case.

In the case of `CC(C)=CCOc1cc(NC(=S)c2ccoc2C)ccc1Cl`, the TGI in the test on NCI-H522 lung, in the test with SK-OV-3 ovarian, in the test with NCI-H23 lung, in the test on IGROV1 ovarian, with MDA-MB-435 and with HCC-2998 colon was > 100 µM in each case. For the same compound, the TGI was > 100 µM with RXF 393 renal, 63.9 µM with SNB-75 CNS and > 100 µM in the test with HOP-62 NSCLC.

Turning to `C=C(c1ccccc1)C1ON(C)CCc2cc(OC)c(OC)cc21` (stereo not drawn), the TGI in the test on NCI-H522 lung, in the test on SK-OV-3 ovarian, in the test on NCI-H23 lung, with IGROV1 ovarian, in the test on MDA-MB-435 and in the test on HCC-2998 colon was > 100 µM each time. The TGI in the test with HL-60(TB) leukemia, in the test with RXF 393 renal, in the test on SNB-75 CNS and in the test with HOP-62 NSCLC was > 100 µM each time.

For the compound `Oc1ccccc1/C=N/Nc1nnc2c3ccccc3c3ccccc3c2n1`, the TGI in the test with NCI-H522 lung is 54.1 µM; in the test with SK-OV-3 ovarian, > 100 µM; in the test on NCI-H23 lung it was > 100 µM; in the test on IGROV1 ovarian, > 100 µM; in the test on MDA-MB-435 it was > 100 µM; in the test on HL-60(TB) leukemia it was > 100 µM. Further, the TGI in the test on RXF 393 renal was > 100 µM; in the test on SNB-75 CNS it was 84.4 µM; in the test on HOP-62 NSCLC, > 100 µM.

Take `Nc1ccn(C2CC(O)C(COP(O)(=S)OC3CC(n4ccc(N)nc4=O)OC3CO)O2)c(=O)n1` (stereo not drawn): the TGI in the test on NCI-H522 lung, in the test on NCI-H23 lung, in the test on IGROV1 ovarian, in the test on MDA-MB-435, in the test with HCC-2998 colon and in the test with HL-60(TB) leukemia was > 100 µM each time. In addition, the TGI in the test with SNB-75 CNS and with HOP-62 NSCLC was > 100 µM in each case.

As for `C[C@@]12C=CC3C/C(=N\C(N)=S)C=C(CCCC4OCCO4)[C@]3(CC1)C2` (stereo partly drawn), the TGI was 22.9 µM in the test with NCI-H522 lung; > 100 µM with SK-OV-3 ovarian; 58.5 µM in the test with NCI-H23 lung; 37.9 µM in the test with IGROV1 ovarian; 45.5 µM in the test on MDA-MB-435; 34.2 µM with HCC-2998 colon. In addition, the TGI in the test with RXF 393 renal was determined as 31.7 µM; in the test with SNB-75 CNS, 66.3 µM; in the test with HOP-62 NSCLC, 92.3 µM.

In the case of `CCOC(=O)NC(C(F)(F)F)(C(F)(F)F)P(=O)(OC(C)C)OC(C)C`, the TGI in the test with SK-OV-3 ovarian, in the test on NCI-H23 lung, in the test on IGROV1 ovarian, in the test with MDA-MB-435, in the test with HCC-2998 colon and in the test on HL-60(TB) leukemia was > 100 µM throughout. The TGI in the test on RXF 393 renal, with SNB-75 CNS and with HOP-62 NSCLC was > 100 µM each time.
